# From US20220187282A1, “CARDIOMYOCYTE PROLIFERATION” (The Council of the Queensland Institute of Medical Research, priority 2019, published 2022)
# “Also recorded” adds a separate entry of the source. Read-outs that look alike come from different tables or passages of the source.
# Tests used:
# Type in all cases: biochemical
# kinases [1] = biological target: kinases (Homo sapiens, UniProt O14965); conditions: AURKA (Aurora A) Z-Lyte SP; Test Conc(μM):ATP Conc(μM) 1:10
# kinases [2] = biological target: kinases (Homo sapiens, UniProt P04629); conditions: NTRK1 (TRKA) FRET-Z-Lyte SP; Test Conc(μM):ATP Conc(μM) 1:400
# kinases [3] = biological target: kinases (Homo sapiens, UniProt P09619); conditions: PDGFRB *Mn* FRET-Z-Lyte SP; Test Conc(μM):ATP Conc(μM) 1:100
# kinases [4] = biological target: kinases (Homo sapiens, UniProt P12931); conditions: SRC Hu Phos FRET-Z-Lyte SP; Test Conc(μM):ATP Conc(μM) 1:50
# kinases [5] = biological target: kinases (Homo sapiens, UniProt P17252); conditions: PRKCA (PKC alpha) Z-Lyte SP; Test Conc(μM):ATP Conc(μM) 1:25
# kinases [6] = biological target: kinases (Homo sapiens, UniProt P22455); conditions: FGFR4 *Mn* FRET-Z-Lyte SP; Test Conc(μM):ATP Conc(μM) 1:150
# kinases [7] = biological target: kinases (Homo sapiens, UniProt P28482); conditions: MAPK1 (ERK2) FRET-Z-Lyte SP; Test Conc(μM):ATP Conc(μM) 1:100
# kinases [8] = biological target: kinases (Homo sapiens, UniProt P29322); conditions: EPHA8 FRET-Z-Lyte SP; Test Conc(μM):ATP Conc(μM) 1:100
# kinases [9] = biological target: kinases (Homo sapiens, UniProt P29597); conditions: TYK2 FRET-Z-Lyte SP; Test Conc(μM):ATP Conc(μM) 1:25
# kinases [10] = biological target: kinases (Homo sapiens, UniProt P42680); conditions: TEC FRET-Lantha SP; Test Conc(μM) 1
# kinases [11] = biological target: kinases (Homo sapiens, UniProt Q00536); conditions: CDK16(PCTK1)/cyclinY Lantha SP; Test Conc(μM) 1
# kinases [12] = biological target: kinases (Homo sapiens, UniProt Q04759); conditions: PRKCQ (PKC theta) Z-Lyte SP; Test Conc(μM):ATP Conc(μM) 1:100
# kinases [13] = biological target: kinases (Homo sapiens, UniProt Q04771); conditions: ACVR1 (ALK2) FRET-Lantha SP; Test Conc(μM) 1
# kinases [14] = biological target: kinases (Homo sapiens, UniProt Q08881); conditions: ITK FRET-Z-Lyte SP; Test Conc(μM):ATP Conc(μM) 1:5
# kinases [15] = biological target: kinases (Homo sapiens, UniProt Q13557); conditions: CAMK2D FRET-Z-Lyte SP; Test Conc(μM):ATP Conc(μM) 1:5
# kinases [16] = biological target: kinases (Homo sapiens, UniProt Q14012); conditions: CAMK1 (CaMK1) FRET-Adapta SP; Test Conc(μM):ATP Conc(μM) 1:10
# kinases [17] = biological target: kinases (Homo sapiens, UniProt Q15418); conditions: RPS6KA1 (RSK1) FRET-Z-Lyte SP; Test Conc(μM):ATP Conc(μM) 1:5
# kinases [18] = biological target: kinases (Homo sapiens, UniProt Q16816); conditions: PHKG1 FRET-Z-Lyte SP; Test Conc(μM):ATP Conc(μM) 1:75
# kinases [19] = biological target: kinases (Homo sapiens, UniProt Q32MK0); conditions: MYLK3 Hu Bind FRET-Lantha SP; Test Conc(μM) 1
# kinases [20] = biological target: kinases (Homo sapiens, UniProt Q5TCX8); conditions: MLK4 FRET-Lantha SP; Test Conc(μM) 1
# kinases [21] = biological target: kinases (Homo sapiens, UniProt Q7L7X3); conditions: TAOK1 FRET-Lantha SP; Test Conc(μM) 1
# kinases [22] = biological target: kinases (Homo sapiens, UniProt Q92630); conditions: DYRK2 FRET-Lantha SP; Test Conc(μM) 1
# kinases [23] = biological target: kinases (Homo sapiens, UniProt Q96GD4); conditions: AURKB (Aurora B) Z-Lyte SP; Test Conc(μM):ATP Conc(μM) 1:75
# kinases [24] = biological target: kinases (Homo sapiens, UniProt Q99640); conditions: PKMYT1 FRET-Lantha SP; Test Conc(μM) 1
# kinases [25] = biological target: kinases (Homo sapiens, UniProt Q9HCP0); conditions: CSNK1G1 (CK1gamma1) Z-Lyte SP; Test Conc(μM):ATP Conc(μM) 1:5
# kinases [26] = biological target: kinases (Homo sapiens, UniProt Q9NY57); conditions: STK32B (YANK2) FRET-Lantha SP; Test Conc(μM) 1
# kinases [27] = biological target: kinases (Homo sapiens, UniProt Q9P0L2); conditions: MARK1 (MARK) FRET-Z-Lyte SP; Test Conc(μM):ATP Conc(μM) 1:5
# kinases [28] = biological target: kinases (Homo sapiens, UniProt Q9UPE1); conditions: STK23 (MSSK1) FRET-Z-Lyte SP; Test Conc(μM):ATP Conc(μM) 1:75
# kinases [29] = biological target: kinases
# [30] = LYN B FRET-Z-Lyte SP, Test Conc(μM):ATP Conc(μM) 1:25
# [31] = PRKCB2 (PKC Beta II) Z-Lyte SP, Test Conc(μM):ATP Conc(μM) 1:200
# Chain of kinases (Homo sapiens, UniProt P28482) (P28482 whole entry): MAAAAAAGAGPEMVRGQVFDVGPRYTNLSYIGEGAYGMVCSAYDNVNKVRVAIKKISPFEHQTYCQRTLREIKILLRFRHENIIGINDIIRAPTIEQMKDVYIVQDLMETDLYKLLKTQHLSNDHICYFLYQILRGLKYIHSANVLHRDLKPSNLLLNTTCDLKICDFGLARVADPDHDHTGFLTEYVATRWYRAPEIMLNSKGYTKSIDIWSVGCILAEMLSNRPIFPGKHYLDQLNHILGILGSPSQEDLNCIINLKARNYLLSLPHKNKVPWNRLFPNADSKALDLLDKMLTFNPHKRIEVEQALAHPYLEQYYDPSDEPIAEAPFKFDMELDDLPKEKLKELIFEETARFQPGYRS
# Chain of kinases (Homo sapiens, UniProt P42680) (P42680 whole entry): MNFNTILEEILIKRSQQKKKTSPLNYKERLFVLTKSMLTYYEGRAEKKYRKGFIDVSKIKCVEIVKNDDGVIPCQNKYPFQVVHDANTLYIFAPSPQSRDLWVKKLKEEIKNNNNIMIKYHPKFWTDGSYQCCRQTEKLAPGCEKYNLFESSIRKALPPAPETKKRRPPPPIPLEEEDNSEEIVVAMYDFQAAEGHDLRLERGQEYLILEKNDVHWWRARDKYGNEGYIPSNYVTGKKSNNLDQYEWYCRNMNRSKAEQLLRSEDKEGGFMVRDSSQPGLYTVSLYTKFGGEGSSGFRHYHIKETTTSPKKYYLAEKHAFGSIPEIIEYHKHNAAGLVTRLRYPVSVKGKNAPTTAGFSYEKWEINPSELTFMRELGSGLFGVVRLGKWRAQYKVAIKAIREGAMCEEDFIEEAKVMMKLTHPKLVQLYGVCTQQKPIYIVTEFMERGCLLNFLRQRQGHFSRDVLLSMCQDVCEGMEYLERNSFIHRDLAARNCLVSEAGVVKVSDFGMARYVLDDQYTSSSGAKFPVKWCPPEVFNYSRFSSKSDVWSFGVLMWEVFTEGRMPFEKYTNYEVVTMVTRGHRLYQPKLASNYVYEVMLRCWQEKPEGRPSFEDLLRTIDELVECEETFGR
# Chain of kinases (Homo sapiens, UniProt Q9UPE1) (Q9UPE1 whole entry): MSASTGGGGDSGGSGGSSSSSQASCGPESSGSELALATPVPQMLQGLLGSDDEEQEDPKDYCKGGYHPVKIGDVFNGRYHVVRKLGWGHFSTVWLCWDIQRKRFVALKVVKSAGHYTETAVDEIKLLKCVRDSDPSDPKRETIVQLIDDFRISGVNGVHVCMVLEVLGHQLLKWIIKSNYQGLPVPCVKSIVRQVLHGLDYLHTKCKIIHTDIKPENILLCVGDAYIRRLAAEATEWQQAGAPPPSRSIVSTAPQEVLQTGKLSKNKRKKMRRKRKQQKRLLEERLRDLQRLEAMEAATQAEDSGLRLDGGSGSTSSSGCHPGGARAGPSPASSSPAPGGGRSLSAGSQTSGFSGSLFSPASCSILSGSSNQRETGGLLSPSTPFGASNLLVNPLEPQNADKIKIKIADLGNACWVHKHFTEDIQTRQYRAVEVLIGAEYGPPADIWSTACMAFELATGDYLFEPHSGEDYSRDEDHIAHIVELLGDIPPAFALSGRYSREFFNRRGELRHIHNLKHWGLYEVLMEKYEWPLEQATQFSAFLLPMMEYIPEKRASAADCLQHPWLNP
# Chain of kinases (Homo sapiens, UniProt P29597) (P29597 whole entry): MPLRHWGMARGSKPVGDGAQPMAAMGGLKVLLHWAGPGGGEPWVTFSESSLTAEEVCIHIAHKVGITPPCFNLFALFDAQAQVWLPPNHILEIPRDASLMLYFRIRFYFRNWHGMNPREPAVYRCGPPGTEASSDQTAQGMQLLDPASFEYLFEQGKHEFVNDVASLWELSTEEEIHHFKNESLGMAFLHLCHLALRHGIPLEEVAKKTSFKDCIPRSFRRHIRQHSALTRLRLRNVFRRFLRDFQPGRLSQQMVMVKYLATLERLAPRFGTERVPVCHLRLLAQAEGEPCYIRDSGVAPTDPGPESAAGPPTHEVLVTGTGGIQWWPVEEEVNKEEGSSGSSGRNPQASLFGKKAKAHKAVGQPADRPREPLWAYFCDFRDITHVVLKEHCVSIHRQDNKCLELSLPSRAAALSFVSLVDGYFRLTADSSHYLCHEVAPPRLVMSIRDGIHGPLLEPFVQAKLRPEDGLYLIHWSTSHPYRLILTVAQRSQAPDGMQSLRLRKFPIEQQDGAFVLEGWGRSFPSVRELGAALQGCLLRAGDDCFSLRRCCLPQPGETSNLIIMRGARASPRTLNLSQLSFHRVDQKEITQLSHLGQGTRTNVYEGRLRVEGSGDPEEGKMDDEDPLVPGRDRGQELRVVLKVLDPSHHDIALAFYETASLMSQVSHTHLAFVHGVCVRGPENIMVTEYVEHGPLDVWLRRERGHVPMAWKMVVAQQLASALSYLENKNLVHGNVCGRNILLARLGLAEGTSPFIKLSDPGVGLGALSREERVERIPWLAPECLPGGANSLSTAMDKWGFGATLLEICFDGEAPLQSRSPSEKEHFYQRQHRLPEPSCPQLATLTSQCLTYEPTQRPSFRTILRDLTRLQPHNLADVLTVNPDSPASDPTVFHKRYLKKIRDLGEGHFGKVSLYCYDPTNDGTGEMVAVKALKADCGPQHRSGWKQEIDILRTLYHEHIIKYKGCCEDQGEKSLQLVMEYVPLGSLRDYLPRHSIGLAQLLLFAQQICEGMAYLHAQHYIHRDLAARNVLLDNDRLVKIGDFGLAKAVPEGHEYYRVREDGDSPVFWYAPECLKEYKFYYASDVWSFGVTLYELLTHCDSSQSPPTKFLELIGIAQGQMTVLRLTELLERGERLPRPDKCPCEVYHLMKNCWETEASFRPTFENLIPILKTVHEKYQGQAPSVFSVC
# Chain of kinases (Homo sapiens, UniProt Q32MK0) (Q32MK0 whole entry): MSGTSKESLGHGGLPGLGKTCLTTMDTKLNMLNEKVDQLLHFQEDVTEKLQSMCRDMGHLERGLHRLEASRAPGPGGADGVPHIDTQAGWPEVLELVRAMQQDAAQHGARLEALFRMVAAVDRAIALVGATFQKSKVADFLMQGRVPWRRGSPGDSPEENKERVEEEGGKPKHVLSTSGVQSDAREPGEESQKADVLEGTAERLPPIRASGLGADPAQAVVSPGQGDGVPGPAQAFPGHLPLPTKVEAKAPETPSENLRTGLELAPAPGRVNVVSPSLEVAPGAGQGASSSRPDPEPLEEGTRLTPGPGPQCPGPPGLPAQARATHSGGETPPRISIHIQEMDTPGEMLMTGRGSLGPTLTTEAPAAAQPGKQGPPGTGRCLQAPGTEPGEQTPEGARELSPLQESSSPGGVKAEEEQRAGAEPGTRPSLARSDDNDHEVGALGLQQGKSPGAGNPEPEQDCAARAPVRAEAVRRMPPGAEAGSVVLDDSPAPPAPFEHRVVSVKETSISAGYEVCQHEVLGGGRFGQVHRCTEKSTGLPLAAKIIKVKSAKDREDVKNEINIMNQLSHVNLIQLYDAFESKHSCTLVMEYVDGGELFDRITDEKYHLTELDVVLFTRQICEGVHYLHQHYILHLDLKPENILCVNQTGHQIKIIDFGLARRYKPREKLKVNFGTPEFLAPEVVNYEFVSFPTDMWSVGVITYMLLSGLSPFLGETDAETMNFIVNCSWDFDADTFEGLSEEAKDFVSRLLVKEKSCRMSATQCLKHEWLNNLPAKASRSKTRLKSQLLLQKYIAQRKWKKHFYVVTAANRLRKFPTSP
# Chain of kinases (Homo sapiens, UniProt P09619) (P09619 33-1106): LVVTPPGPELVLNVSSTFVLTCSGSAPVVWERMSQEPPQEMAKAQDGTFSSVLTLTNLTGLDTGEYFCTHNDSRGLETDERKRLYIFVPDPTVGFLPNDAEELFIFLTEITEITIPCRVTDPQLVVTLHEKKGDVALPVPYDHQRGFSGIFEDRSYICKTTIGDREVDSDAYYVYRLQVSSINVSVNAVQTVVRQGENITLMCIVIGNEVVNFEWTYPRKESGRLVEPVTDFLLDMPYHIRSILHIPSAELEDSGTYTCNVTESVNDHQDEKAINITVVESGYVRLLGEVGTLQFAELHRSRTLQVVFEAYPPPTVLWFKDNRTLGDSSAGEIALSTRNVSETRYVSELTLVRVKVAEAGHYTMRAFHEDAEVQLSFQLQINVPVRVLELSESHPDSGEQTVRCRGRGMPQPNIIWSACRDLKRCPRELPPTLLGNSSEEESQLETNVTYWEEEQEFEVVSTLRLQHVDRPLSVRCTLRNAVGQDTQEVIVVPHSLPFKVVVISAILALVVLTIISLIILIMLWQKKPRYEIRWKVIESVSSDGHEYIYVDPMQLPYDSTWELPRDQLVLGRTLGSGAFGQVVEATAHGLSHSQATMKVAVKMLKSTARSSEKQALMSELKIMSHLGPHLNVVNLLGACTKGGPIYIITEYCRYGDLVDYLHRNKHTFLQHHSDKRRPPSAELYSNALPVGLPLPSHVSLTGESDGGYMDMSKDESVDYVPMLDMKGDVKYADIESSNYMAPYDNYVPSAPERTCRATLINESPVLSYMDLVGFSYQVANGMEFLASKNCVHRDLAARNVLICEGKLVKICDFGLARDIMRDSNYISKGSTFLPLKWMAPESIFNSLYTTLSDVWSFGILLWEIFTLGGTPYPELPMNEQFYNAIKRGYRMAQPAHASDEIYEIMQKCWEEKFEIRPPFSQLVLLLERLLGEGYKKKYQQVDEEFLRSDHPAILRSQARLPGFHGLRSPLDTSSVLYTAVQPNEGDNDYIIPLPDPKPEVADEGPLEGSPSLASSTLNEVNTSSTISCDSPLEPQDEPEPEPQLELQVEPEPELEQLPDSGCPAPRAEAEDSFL
# Chain of kinases (Homo sapiens, UniProt Q9NY57) (Q9NY57 whole entry): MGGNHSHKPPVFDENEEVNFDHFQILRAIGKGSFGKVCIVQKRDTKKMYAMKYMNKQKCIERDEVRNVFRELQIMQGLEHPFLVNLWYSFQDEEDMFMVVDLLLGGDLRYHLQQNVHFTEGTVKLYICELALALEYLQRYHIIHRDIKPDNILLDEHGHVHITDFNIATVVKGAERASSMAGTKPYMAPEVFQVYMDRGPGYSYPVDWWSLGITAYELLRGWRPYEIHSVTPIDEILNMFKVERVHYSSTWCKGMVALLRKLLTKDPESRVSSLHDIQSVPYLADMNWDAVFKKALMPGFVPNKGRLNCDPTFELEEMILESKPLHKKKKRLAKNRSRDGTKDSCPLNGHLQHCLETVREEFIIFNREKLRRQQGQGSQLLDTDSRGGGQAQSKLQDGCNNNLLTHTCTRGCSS
SMILES,Mean Inhib (%) (kinases [1]),Mean Inhib (%) (kinases [2]),Mean Inhib (%) (kinases [3]),Mean Inhib (%) (kinases [4]),Mean Inhib (%) (kinases [5]),Mean Inhib (%) (kinases [6]),Mean Inhib (%) (kinases [7]),Mean Inhib (%) (kinases [8]),Mean Inhib (%) (kinases [9]),Mean Inhib (%) (kinases [10]),Mean Inhib (%) (kinases [11]),Mean Inhib (%) (kinases [12]),Mean Inhib (%) (kinases [13]),Mean Inhib (%) (kinases [14]),Mean Inhib (%) (kinases [15]),Mean Inhib (%) (kinases [16]),Mean Inhib (%) (kinases [17]),Mean Inhib (%) (kinases [18]),Mean Inhib (%) (kinases [19]),Mean Inhib (%) (kinases [20]),also measured
Cc1ccc(NC(=O)c2ccnc(N3CCOCC3)c2)cc1Nc1ccnc(N2CC(C)OC(C)C2)n1 (stereo not shown) [compound 3],−2.7%,30.7%,15.5%,14.3%,23.3%,14.8%,3.6%,8.6%,6.0%,5.7%,3.4%,15.6%,2.3%,6.1%,8.1%,−9.9%,14.8%,−3.8%,4.5%,−1.5%,Mean Inhib (%) (kinases [21]): −6.0%; Mean Inhib (%) (kinases [22]): −0.5%; Mean Inhib (%) (kinases [23]): 4.9%; Mean Inhib (%) (kinases [24]): 9.3%; Mean Inhib (%) (kinases [25]): 5.2%; Mean Inhib (%) (kinases [26]): −1.3%; Mean Inhib (%) (kinases [27]): 16.9%; Mean Inhib (%) (kinases [28]): 4.3%; kinase specificity (kinase inhibition profile) (kinases [29]): strong specificity in targeting p38α; also recorded: very specific for p38α/β; Mean Inhib (%) (kinases [29]; [30]): 16.3%; Mean Inhib (%) (kinases [29]; [31]): −11.1%
Cc1cc(Oc2ccnc(Nc3ccc(S(N)(=O)=O)cc3)c2)c(-c2ccccn2)nc1C [compound 65],7.2%,20.1%,3.9%,54.4%,−2.0%,−0.9%,7.5%,64.7%,8.4%,−1.4%,0.2%,5.9%,88.2%,−6.9%,0.3%,7.3%,5.3%,−6.4%,0.8%,1.9%,Mean Inhib (%) (kinases [21]): 33.0%; Mean Inhib (%) (kinases [22]): 9.6%; Mean Inhib (%) (kinases [23]): 2.7%; Mean Inhib (%) (kinases [24]): −14.5%; Mean Inhib (%) (kinases [25]): −1.9%; Mean Inhib (%) (kinases [26]): 2.1%; Mean Inhib (%) (kinases [27]): 5.7%; Mean Inhib (%) (kinases [28]): −4.8%; Mean Inhib (%) (kinases [29]; [30]): 42.0%; Mean Inhib (%) (kinases [29]; [31]): −1.0%
